Our source for the melting point values is a melting point compilation (Tetko et al.; mined from patent text by program, amines drawn as free bases though some values may be those of a salt).

Where only a bound is given, the exact number is not on record here.

For orientation: melting point means the temperature, or range, at which the solid turns liquid.

With `O=C(O)c1c2c(nc3ccc(F)cc13)-c1ccc(-c3ccc(F)cc3)cc1CC2`, the melting point is more than 300 °C. As to `Fc1cc(Cl)cc2cc(-c3ccccc3)[nH]c12`, the melting point lay in the range of 153 to 155 °C.

For the compound `COC(=N)NC(=O)NC(C)C`, the melting point is 64 to 67 °C.

With `O=C(O)CCc1ccc(SCCC(c2ccccc2)(c2ccccc2)c2ccccc2)cc1`, the melting point lay within 51 to 53 °C.

On to `CCCn1c(=O)c2[nH]c(/C=C/c3cccc(OC)c3OC)nc2n(CCC)c1=O`, for which the melting point is 236 °C.

Compound `CC(C)(CO)NS(=O)(=O)c1cccc(NC(=O)c2cnn3c(C(F)(F)F)cc(-c4ccc(OC(F)(F)F)cc4)nc23)c1` gave a melting point of 212 °C. In turn, `Cc1nc(C(C)O)cn1Cc1ccccc1` (stereo not given) returned a melting point of 162 to 168 °C. The compound `Clc1cccc(Nc2ncnc3[nH]nc(NCc4ccc5c(c4)OCO5)c23)c1` yielded a melting point of 220 to 222 °C. Under `CCOC(=O)C(C)c1ccc(C(=O)c2ccc(Cl)cc2)n1C` (stereo not given) stands 67 to 68 °C; under `CCCc1nc2cnc3cc(C)ccc3c2o1`, 65 to 68 °C. As for `COC(=O)c1ccc2c(c1)ncn2Cc1ccccc1`, the figure is 156 to 162 °C. As for `N#Cc1ccc(CCC(O)C2CC2)cc1` (stereo not given), the figure is 70 to 71 °C.

Compound `Cc1nn(-c2c(Cl)cc(C(F)(F)F)cc2Cl)c(C)c1C=NC(C#N)=C(N)C#N` returned a melting point of 237 to 240 °C. In the case of `Cc1cc2c(c3c1CCC3)OC(CNC(=O)OCc1ccccc1)C2` (stereo not given), the melting point lay in the range of 109 to 113 °C.

Compound `COc1cccc2c1CC1OC1C2` (stereo not given) returned a melting point of 49.5 to 50.5 °C. Under `CN(C)C(=O)Nc1cccc(Cl)c1` stands 138 to 142 °C. Under `CCCc1nc2c(C)cnc(C(=O)O)c2n1Cc1ccc(-c2ccccc2-c2nnn[nH]2)cc1` stands 161 to 163 °C; under `O=C(O)CCCc1cccc(OCc2cn(-c3ccc(C(F)(F)F)cn3)nc2C2CCCCC2)c1`, 128 to 129 °C; under `Fc1cc(F)c(-c2c(Cl)nc(-n3ccnc3)nc2NCC(F)(F)F)c(F)c1`, 168 to 170 °C.

`COc1ccc(-c2coc3c(C)c(O)ccc3c2=O)cc1OC` showed a melting point of 234 °C. As for `CC(C)(C)NNC(=O)c1cccc(Cl)c1`, the figure is 116 to 118 °C; as for `CC(C)(O)CCCCCc1ccc(CCc2cc(O)cc(O)c2)cc1`, 128 to 130 °C. As for `CN(C)Cc1nnc2n1-c1ccc(C(F)(F)F)cc1C(c1ccccc1)=[N+]([O-])C2`, the figure is 188 to 190 °C; as for `COc1ccc(COc2ccccc2Br)cc1`, 87 to 90 °C; as for `Cc1ccc(-c2nc(Cc3cccc(CBr)c3)c(C)o2)cc1`, 101 to 102 °C. Under `O=C(O)C=CC(=O)NCCCCCCCCCCCCCCCCCCCC(=O)O` stands 146 to 148 °C; under `O=C(O)C(Cc1ccccc1)c1ccc2ccn(Cc3ccccc3)c2c1` (stereo not given), 148 to 150 °C; under `O=C(Nc1ccc(C(=O)N2Cc3cccn3Cc3ccccc32)c(Cl)c1)c1ccccc1-c1cccs1`, 132 to 136 °C.

For the compound `CS(=O)(=O)c1ccc(-c2oc(CO)cc(=O)c2Oc2ccc(F)cc2F)cc1`, the melting point was 205 °C. Under `CN1CCN(c2ccc(Nc3ncc4c(Br)cc(-c5ccc(S(C)(=O)=O)cc5)n4n3)cc2)CC1` stands 265 to 266 °C; under `COc1cc(C(=O)N(C(C)C)C2CCCCC2)ccc1Cn1cccc2nc(-c3cccnc3)nc1-2`, 185 to 188 °C; under `COC(=O)[C@@H]1CSC(=O)N1CC(C)(C)SCc1ccc(OC)cc1`, 51 to 54 °C.

Regarding `C(=C\c1nc(COc2ccc(-n3ccnc3)cc2)co1)/c1ccccc1`, the melting point was 160 to 162 °C.

As to `NS(=O)(=O)Oc1ccc([N+](=O)[O-])c(C(F)(F)F)c1`, the melting point was in the range of 95 to 97 °C. The compound `CCCCOC(=O)C(CCc1ccccc1)NC1CSC(c2ccsc2)CN(CC(=O)O)C1=O` (stereo not given) came in with a melting point of 156 °C.
